Laboratory results reported in ChEMBL document CHEMBL1123948, “Synthesis and biological evaluation of poly-gamma-glutamyl metabolites of 10-deazaaminopterin and 10-ethyl-10-deazaaminopterin” (J Med Chem, 1988).
Values joined by “and” are separate entries in the source; they are usually repeats but may differ in a detail not shown here. Identical values can stand only once.

Experiments:
Lacticaseibacillus casei [1] = assay: Inhibitory activity against the growth of Lactobacillus casei (ATCC 7469) was determined (glutamate residue 4); assay type: functional, organism-based
Lacticaseibacillus casei [2] = assay: Inhibitory activity against thymidylate synthase in Lactobacillus casei was determined (glutamate residue 2); assay type: functional, organism-based
Lacticaseibacillus casei [3] = assay: Inhibitory activity against the growth of Lactobacillus casei (ATCC 7469) was determined (glutamate residue 3); assay type: functional, organism-based
Lacticaseibacillus casei [4] = assay: Inhibitory activity against the growth of Lactobacillus casei (ATCC 7469) was determined (glutamate residue 6); assay type: functional, organism-based
Lacticaseibacillus casei [5] = assay: Inhibitory activity against the growth of Lactobacillus casei (ATCC 7469) was determined (glutamate residue 2); assay type: functional, organism-based
Lacticaseibacillus casei [6] = assay: Inhibitory activity against thymidylate synthase in Lactobacillus casei was determined (glutamate residue 6); assay type: functional, organism-based
Lacticaseibacillus casei [7] = assay: Inhibitory activity against thymidylate synthase in Lactobacillus casei was determined (glutamate residue 3); assay type: functional, organism-based
Lacticaseibacillus casei [8] = assay: Inhibitory activity against thymidylate synthase in Lactobacillus casei was determined (glutamate residue 1); assay type: functional, organism-based
Lacticaseibacillus casei [9] = assay: Inhibitory activity against thymidylate synthase in Lactobacillus casei was determined (glutamate residue 4); assay type: functional, organism-based
Lacticaseibacillus casei [10] = assay: Inhibitory activity against the growth of Lactobacillus casei (ATCC 7469) was determined (glutamate residue 5); assay type: functional, organism-based
Lacticaseibacillus casei [11] = assay: Inhibitory activity against thymidylate synthase in Lactobacillus casei was determined (glutamate residue 5); assay type: functional, organism-based
[12] = tested on: Enterococcus hirae (Streptococcus faecium ATCC 8043); assay: Inhibitory activity against the growth of Streptococcus faecium (ATCC 8043) was determined (glutamate residue 6)
Lacticaseibacillus casei [13] = assay: Inhibitory activity against the growth of Lactobacillus casei (ATCC 7469) was determined (glutamate residue 1); assay type: functional, organism-based
Dihydrofolate reductase [14] = molecular target: T1, Dihydrofolate reductase (Lactobacillus casei, UniProt P00381); assay: Inhibitory activity against dihydrofolate reductase in Lactobacillus casei was determined (glutamate residue 3); assay type: functional, Lacticaseibacillus casei
Dihydrofolate reductase [15] = molecular target: T1, Dihydrofolate reductase; assay: Inhibitory activity against dihydrofolate reductase in Lactobacillus casei was determined (glutamate residue 6); assay type: functional, Lacticaseibacillus casei
Dihydrofolate reductase [16] = molecular target: T1, Dihydrofolate reductase; assay: Inhibitory activity against dihydrofolate reductase in Lactobacillus casei was determined (glutamate residue 5); assay type: functional, Lacticaseibacillus casei
Dihydrofolate reductase [17] = molecular target: T1, Dihydrofolate reductase; assay: Inhibitory activity against dihydrofolate reductase in Lactobacillus casei was determined (glutamate residue 4); assay type: functional, Lacticaseibacillus casei
Dihydrofolate reductase [18] = molecular target: T1, Dihydrofolate reductase; assay: Inhibitory activity against dihydrofolate reductase in Lactobacillus casei was determined (glutamate residue 2); assay type: functional, Lacticaseibacillus casei

T1 sequence (P00381 whole entry): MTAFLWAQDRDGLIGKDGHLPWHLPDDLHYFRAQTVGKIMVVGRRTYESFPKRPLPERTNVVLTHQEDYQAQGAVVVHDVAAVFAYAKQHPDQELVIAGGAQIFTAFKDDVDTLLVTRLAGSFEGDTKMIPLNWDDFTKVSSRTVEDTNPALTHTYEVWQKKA

SMILES	IC50 (Lacticaseibacillus casei [1])	IC50 (Lacticaseibacillus casei [2])	IC50 (Lacticaseibacillus casei [3])	IC50 (Lacticaseibacillus casei [4])	IC50 (Lacticaseibacillus casei [5])	IC50 (Lacticaseibacillus casei [6])	IC50 (Lacticaseibacillus casei [7])	IC50 (Lacticaseibacillus casei [8])	IC50 (Lacticaseibacillus casei [9])	IC50 (Lacticaseibacillus casei [10])	IC50 (Lacticaseibacillus casei [11])	IC50 [12]	IC50 (Lacticaseibacillus casei [13])	IC50 (Dihydrofolate reductase [14])	IC50 (Dihydrofolate reductase [15])	IC50 (Dihydrofolate reductase [16])	IC50 (Dihydrofolate reductase [17])	IC50 (Dihydrofolate reductase [18])
CN(Cc1cnc2nc(N)nc(N)c2n1)c1ccc(C(=O)N[C@@H](CCC(=O)O)C(=O)O)cc1 [METHOTREXATE]	0.8 nM	6000 nM	0.2 nM	27 nM	0.09 nM	280 nM	1100 nM	100000 nM	180 nM	2.2 nM	280 nM	> 8000 nM						
Nc1nc(N)c2nc(CCc3ccc(C(=O)N[C@@H](CCC(=O)O)C(=O)O)cc3)cnc2n1	3 nM	88000 nM	0.6 nM	90 nM	0.09 nM	2300 nM	11000 nM	> 300000 nM	5500 nM	14 nM	3500 nM	> 3000 nM	0.08 nM	22 nM	34 nM	21 nM	20 nM	18 nM and 24 nM
CCC(Cc1cnc2nc(N)nc(N)c2n1)c1ccc(C(=O)N[C@@H](CCC(=O)O)C(=O)O)cc1 (stereo not given in full) [EDATREXATE]	9 nM	170000 nM	1 nM		0.16 nM		28000 nM	> 300000 nM	14000 nM	90 nM	7400 nM		0.63 nM					
